# Experimental data from PMC3753754, “Andrographis paniculata Extract and Andrographolide Modulate the Hepatic Drug Metabolism System and Plasma Tolbutamide Concentrations in Rats” (Evidence-based Complementary and Alternative Medicine : eCAM, 2013).
# Marks after values point to notes of the source that are not given here.
# How the values were obtained:
# [1] = system: CYP3A; assay: Testosterone 6β-hydroxylation in liver microsomes of treated rats; assay type: in vivo; conditions: rat liver microsomes; oral 2 g/kg APE or 50 mg/kg AND daily for 5 days
# Description: (§1) Liver was homogenized (1 : 4, w/v) in an ice-cold potassium phosphate buffer (pH 7.4) containing 7.4 mM K2HPO4, 2.6 mM KH2PO4, 1.15% KCl, and 1 mM phenylmethylsulfonyl fluoride (PMSF). Tissue homogenates were centrifuged at 10,000 ×g for 30 min at 4°C. The resulting supernatant was then centrifuged at 105,000 ×g for 1 h at 4°C. The microsomes thus obtained were washed several times to get rid of possible tolbutamide contamination and this can avoid tolbutamide interference of CYP activity, and the microsomes were then suspended in potassium phosphate buffer (pH 7.7) containing 7.5 mM K2HPO4, 14.5 mM KH2PO4, and 1 mM EDTA. […] Metabolites of each CYP enzyme reaction were determined by LC/MS as reported previously. The contents of total CYP and cytochrome b5 were quantified by the method of Omura and Sato [29]. Enzyme activity is expressed as picomoles of metabolite formed per minute per milligram of protein. The NADPH-CYP reductase activity was measured as described by Phillips and Langdon with the use of cytochrome c as the substrate. The microsomal protein concentration was determined by using a Coomassie Plus protein assay kit (Pierce, Rockford, IL, USA).
# [2] = system: CYP2E1; assay: p-Nitrophenol 6-hydroxylation in liver microsomes of treated rats; assay type: in vivo; conditions: rat liver microsomes; oral 2 g/kg APE or 50 mg/kg AND daily for 5 days
# Description: as §1
# [3] = system: Cytochrome P450; assay: Total CYP content in liver microsomes of treated rats; assay type: in vivo; conditions: rat liver microsomes; oral 2 g/kg APE or 50 mg/kg AND daily for 5 days
# Description: as §1
# [4] = Pharmacokinetics of tolbutamide in control, APE-pretreated and andrographolide-pretreated rats; assay type: in vivo, Sprague-Dawley rats; conditions: rats, 2 g/kg/day APE or 50 mg/kg/day andrographolide for 5 days before 20 mg/kg tolbutamide
# Description: Seven-week-old male Sprague-Dawley rats cannulated in the jugular vein were purchased from the Bio LASCO Experimental Animal Center (Taipei, Taiwan). The animals were fed a standard rat diet and were randomly assigned into control, APE-treated, and andrographolide-treated groups (n = 5). Rats were housed in plastic cages in a room kept at 23 ± 1°C and 60 ± 5% relative humidity with a 12-hour light and dark cycle. Food and drinking water were available ad libitum. Control rats were orally administered methyl cellulose. […] After the 5th daily dose, rats were deprived of food overnight. On day 6, a 20 mg/kg oral dose of tolbutamide, as a solution in Cremophor EL (polyoxyl 35 hydrogenated castor oil, Sigma)/ethanol/water (30/10/60, v/v/v), was administered to each rat. After the administration of tolbutamide, serial blood samples were collected up to 12 h after dosing from each rat. The animals were then killed by exsanguination, and the livers were collected.
# Tolbutamide was prepared in a solution of Cremophor EL/ethanol/water (30/10/60, v/v/v). After administration, blood samples (~200 μL) were collected from the tail vein of each rat at 0.25, 0.5, 1, 2, 4, 8, and 12 h after dosing. Plasma was separated from blood by centrifugation (4000 ×g for 20 min at 4°C). An aliquot of 50 μL plasma was mixed with 100 μL acetonitrile and then centrifuged at 10,000 ×g for 15 min at 4°C. The supernatant was used to determine the concentration of tolbutamide by LC/MS. Calibration standards of tolbutamide were prepared by serial dilution of a tolbutamide stock solution with blank plasma, yielding final concentrations of tolbutamide ranging from 1 to 300 μg/mL of plasma.
# The HPLC system consisted of an Agilent 1100 series LC System (Palo Alto, CA) and an Agilent Zorbax Eclipse XDB-C8 column (3 μm, 3.0 mm × 150 mm), interfaced to an Agilent MSD mass spectrometer equipped with an electrospray ionization source. Column temperature was set at 25°C. The initial mobile phase composition was 30% acetonitrile containing 10 mM ammonium acetate (solvent A) and 70% of 0.1% formic acid (solvent B). The following gradient system was used: 30% A to 50% A (0-1 min), 50% A to 98% A (1–3 min), 98% A (3–9 min), 98% A to 30% A (9-10 min), and 30% A (10–15 min). The flow rate was 0.5 mL/min. Sample injection volume was 10 μL. The MS data acquisition was via selected ion monitoring. The positive ion of the testing compound was selected, and the peak size was measured. The area under the plasma tolbutamide concentration versus time curve (AUC) was calculated by using the trapezoidal method.
# [5] = target: T1, aryl hydrocarbon receptor (AhR) (Rattus norvegicus, UniProt P41738); assay: EMSA of liver nuclear protein binding to XRE consensus sequence; assay type: in vivo; conditions: APE or andrographolide for 5 days
# T1 construct: from tissue; host or cells: crude liver nuclear extract of treated Sprague-Dawley rats
# T1 sequence (P41738 10-853): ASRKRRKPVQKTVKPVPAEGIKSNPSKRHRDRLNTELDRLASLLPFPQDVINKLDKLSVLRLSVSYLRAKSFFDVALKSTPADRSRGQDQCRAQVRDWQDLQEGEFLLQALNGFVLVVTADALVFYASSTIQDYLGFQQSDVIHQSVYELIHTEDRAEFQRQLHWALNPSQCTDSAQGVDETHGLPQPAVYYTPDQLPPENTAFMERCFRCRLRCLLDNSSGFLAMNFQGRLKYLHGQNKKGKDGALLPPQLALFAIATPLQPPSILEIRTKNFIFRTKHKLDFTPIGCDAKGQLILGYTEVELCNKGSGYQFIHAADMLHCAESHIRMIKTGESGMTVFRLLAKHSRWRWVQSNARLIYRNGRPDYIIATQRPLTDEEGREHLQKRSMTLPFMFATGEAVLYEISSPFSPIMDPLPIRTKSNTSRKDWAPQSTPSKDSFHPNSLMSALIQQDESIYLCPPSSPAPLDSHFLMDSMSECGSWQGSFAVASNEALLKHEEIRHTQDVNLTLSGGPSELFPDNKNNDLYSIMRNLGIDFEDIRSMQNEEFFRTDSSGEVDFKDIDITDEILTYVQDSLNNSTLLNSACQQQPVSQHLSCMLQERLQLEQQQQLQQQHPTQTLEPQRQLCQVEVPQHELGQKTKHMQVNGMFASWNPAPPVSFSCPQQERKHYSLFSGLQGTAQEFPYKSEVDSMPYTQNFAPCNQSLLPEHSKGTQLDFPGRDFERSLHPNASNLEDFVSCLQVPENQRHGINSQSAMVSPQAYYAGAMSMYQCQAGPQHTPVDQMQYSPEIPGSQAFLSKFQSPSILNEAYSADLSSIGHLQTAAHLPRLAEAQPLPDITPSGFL
# T1 sequence (P41739 whole entry partner): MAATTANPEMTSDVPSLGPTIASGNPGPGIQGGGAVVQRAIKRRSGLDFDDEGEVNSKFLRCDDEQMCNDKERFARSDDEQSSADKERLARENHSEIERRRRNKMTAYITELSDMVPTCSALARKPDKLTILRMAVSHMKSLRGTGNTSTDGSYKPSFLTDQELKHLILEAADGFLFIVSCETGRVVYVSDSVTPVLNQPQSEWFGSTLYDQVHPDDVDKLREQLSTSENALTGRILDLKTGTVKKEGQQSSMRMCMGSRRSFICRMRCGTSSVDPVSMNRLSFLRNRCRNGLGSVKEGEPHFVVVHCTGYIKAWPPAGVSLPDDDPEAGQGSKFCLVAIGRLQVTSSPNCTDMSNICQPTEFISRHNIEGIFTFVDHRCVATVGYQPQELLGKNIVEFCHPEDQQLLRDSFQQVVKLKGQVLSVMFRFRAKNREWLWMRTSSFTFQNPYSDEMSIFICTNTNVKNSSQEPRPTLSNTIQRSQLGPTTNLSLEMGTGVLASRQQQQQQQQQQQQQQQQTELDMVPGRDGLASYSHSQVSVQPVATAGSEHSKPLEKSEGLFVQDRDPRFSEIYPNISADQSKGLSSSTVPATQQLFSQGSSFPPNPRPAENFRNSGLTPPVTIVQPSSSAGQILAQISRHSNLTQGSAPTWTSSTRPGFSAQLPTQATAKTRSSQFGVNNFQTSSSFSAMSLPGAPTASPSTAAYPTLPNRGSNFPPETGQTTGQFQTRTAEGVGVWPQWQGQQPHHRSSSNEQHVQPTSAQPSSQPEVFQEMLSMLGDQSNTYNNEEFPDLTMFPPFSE
# Description: Nuclear proteins of liver tissues were extracted as described by Tian et al. with some modifications. Briefly, 0.1 g of liver was homogenized (1 : 9, w/v) with 0.9 mL of ice-cold 10 mM HEPES buffer (pH 7.9) containing 10 mM KCl, 1 mM MgCl2, 0.1 mM EDTA, 0.5 mM dithiothreitol, 0.5 mM PMSF, 4 μg/mL leupeptin, and 20 μg/mL aprotinin. The homogenates were placed in an ice bath for 15 min and then centrifuged at 600 ×g for 10 min. Then, 100 μL of 10% Nonidet P-40 was added to the supernatant, and the samples were allowed to sit in an ice bath for 10 min. The supernatant was centrifuged at 5,000 ×g for 5 min. The pellet, containing crude nuclei, was resuspended in 100 μL of hypertonic buffer containing 10 mM HEPES, 400 mM KCl, 1 mM MgCl2, 0.1 mM EDTA, 0.5 mM dithiothreitol, 4 μg/mL leupeptin, 20 μg/mL aprotinin, 25% glycerol, and 0.5 mM PMSF at 4°C for 45 min. Nuclear proteins were then collected by centrifugation at 12,000 ×g for 15 min.
# EMSA was performed according to the method reported previously. The LightShift Chemiluminescent EMSA Kit (Pierce, Rockford, IL) and synthetic biotin-labeled double-stranded consensus oligonucleotides of DR4 (5′-[…]-3′) and xenobiotic response element (XRE) (forward: 5′-[…]-3′) were used to measure pregnane X receptor (PXR) and aryl hydrocarbon receptor (AhR) nuclear protein-DNA-binding activity. […]
smiles,measurement,setting,value
"C=C1CC[C@@H]2[C@](C)(CO)[C@H](O)CC[C@@]2(C)[C@@H]1C/C=C1/C(=O)OC[C@H]1O [andrographolide, Andrographolide]",Testosterone 6β-hydroxylase (3A),[1],1195 ± 284^b pmol/min/mg protein
same,p-Nitrophenol 6-hydroxylase (2E1),[2],91.1 ± 13.0^b pmol/min/mg protein
same,Cytochrome P450 content,[3],674 ± 64^b pmol/mg protein
same,Reduction of the AUC0–12 h of tolbutamide compared with controls,[4],18%
same,Binding activity of the XRE consensus sequence to nuclear protein AhR,[5],enhanced
